Laboratory results: the supplement of paper PMC10307832

Assays:
Assay in all cases: relative viability (nuclei count vs DMSO), 5 days (fraction); higher = more cells survive
NCI-H1650 = system: NCI-H1650
Summary of the method: (§1)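 Relative viability divides the nuclei count in treated wells by that in vehicle wells. Lung cancer cell lines were seeded in 1536-well plates, dosed by pin tool the next day, and fixed and stained after 5 days in one step with final 0.05% Triton X-100, 1% formaldehyde and 1 ug/ml Hoechst. Dosing was a single drug or a fixed anchor-drug dose plus five library-drug doses (not always all listed) in √10 steps, and values are medians of duplicate plates imaged at 4×.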

NCI-H1793 = system: NCI-H1793
Summary of the method: as §1

NCI-H1944 = system: NCI-H1944
Summary of the method: as §1

NCI-H2087 = system: NCI-H2087
Summary of the method: as §1

NCI-H2405 = system: NCI-H2405
Summary of the method: as §1

NCI-H3122 = system: NCI-H3122
Summary of the method: as §1

NCI-H322M = system: NCI-H322M
Summary of the method: as §1

NCI-H647 = system: NCI-H647
Summary of the method: as §1

NCI-H727 = system: NCI-H727
Summary of the method: as §1

RERF-LC-KJ = system: RERF-LC-KJ
Summary of the method: as §1

SK-LU-1 = system: SK-LU-1
Summary of the method: as §1

## CC1(C)CCC(c2ccc(Cl)cc2)=C(CN2CCN(c3ccc(C(=O)NS(=O)(=O)c4ccc(N[C@H](CCN5CCOCC5)CSc5ccccc5)c(S(=O)(=O)C(F)(F)F)c4)cc3)CC2)C1 [Navitoclax] + Nc1ncn([C@H]2C[C@H](O)[C@@H](CO)O2)c(=O)n1 [Decitabine] (partner 2 µM)
NCI-H1650; first compound 0.01581 µM
  relative viability: 0.424
NCI-H1650; first compound 0.05 µM
  relative viability: 0.399
NCI-H1650; first compound 0.1581 µM
  relative viability: 0.364
NCI-H1650; first compound 0.5 µM
  relative viability: 0.334
NCI-H1793; first compound 0.005 µM
  relative viability: 0.448
NCI-H1793; first compound 0.01581 µM
  relative viability: 0.595
NCI-H1793; first compound 0.1581 µM
  relative viability: 0.49
NCI-H1793; first compound 0.5 µM
  relative viability: 0.345
NCI-H1944; first compound 0.005 µM
  relative viability: 0.466
NCI-H1944; first compound 0.01581 µM
  relative viability: 0.455
NCI-H1944; first compound 0.1581 µM
  relative viability: 0.384
NCI-H1944; first compound 0.5 µM
  relative viability: 0.396
NCI-H2087; first compound 0.005 µM
  relative viability: 0.277
NCI-H2087; first compound 0.01581 µM
  relative viability: 0.314
NCI-H2087; first compound 0.1581 µM
  relative viability: 0.231
NCI-H2087; first compound 0.5 µM
  relative viability: 0.266
NCI-H2405; first compound 0.005 µM
  relative viability: 0.75
NCI-H2405; first compound 0.01581 µM
  relative viability: 0.812
NCI-H2405; first compound 0.05 µM
  relative viability: 0.885
NCI-H2405; first compound 0.1581 µM
  relative viability: 0.717
NCI-H2405; first compound 0.5 µM
  relative viability: 0.771
NCI-H3122; first compound 0.005 µM
  relative viability: 0.407
NCI-H3122; first compound 0.01581 µM
  relative viability: 0.446
NCI-H3122; first compound 0.05 µM
  relative viability: 0.471
NCI-H3122; first compound 0.1581 µM
  relative viability: 0.433
NCI-H3122; first compound 0.5 µM
  relative viability: 0.444
NCI-H322M; first compound 0.005 µM
  relative viability: 0.722
NCI-H322M; first compound 0.01581 µM
  relative viability: 0.863
NCI-H322M; first compound 0.05 µM
  relative viability: 0.703
NCI-H322M; first compound 0.1581 µM
  relative viability: 0.655
NCI-H322M; first compound 0.5 µM
  relative viability: 0.725
NCI-H647; first compound 0.005 µM
  relative viability: 0.403
NCI-H647; first compound 0.01581 µM
  relative viability: 0.413
NCI-H647; first compound 0.05 µM
  relative viability: 0.409
NCI-H647; first compound 0.1581 µM
  relative viability: 0.275
NCI-H647; first compound 0.5 µM
  relative viability: 0.32
NCI-H727; first compound 0.005 µM
  relative viability: 0.903
NCI-H727; first compound 0.01581 µM
  relative viability: 1.08
NCI-H727; first compound 0.05 µM
  relative viability: 0.839
NCI-H727; first compound 0.1581 µM
  relative viability: 0.786
NCI-H727; first compound 0.5 µM
  relative viability: 1.02
RERF-LC-KJ; first compound 0.005 µM
  relative viability: 0.834
RERF-LC-KJ; first compound 0.01581 µM
  relative viability: 0.55
RERF-LC-KJ; first compound 0.05 µM
  relative viability: 0.669
RERF-LC-KJ; first compound 0.1581 µM
  relative viability: 0.733
RERF-LC-KJ; first compound 0.5 µM
  relative viability: 0.708
SK-LU-1; first compound 0.005 µM
  relative viability: 0.577
SK-LU-1; first compound 0.01581 µM
  relative viability: 0.577
SK-LU-1; first compound 0.05 µM
  relative viability: 0.389
SK-LU-1; first compound 0.1581 µM
  relative viability: 0.609
SK-LU-1; first compound 0.5 µM
  relative viability: 0.469
